Laboratory results published in US9321764B2, “Dihydro-pyrrolopyridinone inhibitors” (AbbVie Inc., priority 2013, dated 2016).

Legend:
BRD4 (BDI_K57-E168) = target: T1, BRD4 (BDI_K57-E168) (Homo sapiens, UniProt O60885); experiment: TR-FRET bromodomain binding assay, first bromodomain of BRD4; conditions: His-tagged BD1, 100 nM Alexa647 probe; TR-FRET protocol A-E given per row
T1 construct: BD1: amino acids K57-E168; made in house
Procedure: (§1) A time-resolved fluorescence resonance energy transfer (TR-FRET) assay was used to determine the affinities of compounds of the Examples listed in Table 1 for each bromodomain of BRD4. His-tagged first (BD1: amino acids K57-E168) and second (BD2: amino acids E352-E168) bromodomains of BRD4 were expressed and purified. An Alexa647-labeled BET-inhibitor was used as the fluorescent probe in the assay.
(§2) Compound dilution series were prepared in DMSO via an approximately 3-fold serial dilution from one of the following:
Assay method A: 250 μM-4.2 nM
Assay method B: 0.47 mM to 7.8 nM
Assay method C: 500 μM-8.5 nM
(§3) Assay method D: 2.5 mM-800 nM
Assay method E: 0.047 mM to 0.78 nM or 5-fold serial dilution from Assay method D
For Assay methods A, C, and D: Compounds were then diluted 6:100 in assay buffer (20 mM Sodium Phosphate, pH 6.0, 50 mM NaCl, 1 mM Ethylenediaminetetraacetic acid, 0.01% Triton X-100, 1 mM DL-Dithiothreitol) to yield 3× working solutions. Six microliters (μL) of the working solution was then transferred to white, low-volume assay plates (Costar #3673). A 1.5× assay mixture containing His-tagged bromodomain, Europium-conjugated anti-His antibody (Invitrogen PV5596) and the Alexa-647-conjugated probe molecule was also prepared. Twelve μL of this solution were added to the assay plate to reach a final volume of 18 μL.
For Assay methods B and E: Compound dilutions were added directly into white, low-volume assay plates (Perkin Elmer Proxiplate 384 Plus #6008280) using a Labcyte Echo in conjunction with Labcyte Access and Thermo Multidrop CombinL robotics. Compounds were then suspended in eight microliters (μL) of assay buffer (20 mM Sodium Phosphate, pH 6.0, 50 mM NaCl, 1 mM Ethylenediaminetetraacetic acid disodium salt dihydrate, 0.01% Triton X-100, 1 mM DL-Dithiothreitol) containing His-tagged bromodomain, Europium-conjugated anti-His antibody (Invitrogen PV5596) and Alexa-647-conjugated probe.
The final concentration of 1× assay mixture for assay methods A, B, C, D, and E contains 2% DMSO, 8 nM His-tagged bromodomain, 1 nM Europium-conjugated anti-His-tag antibody and 100 nM or 30 nM probe (for BDI or BDII, respectively) and compound concentration in the range of: 5 μM-85 pM for method A, 9.19 μM 150 pM for method B, 10 μM-169 pM for method C, 50 μM-16 nM for method D, and 0.92 μM-15 pM for method E.
After a one-hour equilibration at room temperature, TR-FRET ratios were determined using an Envision multilabel plate reader (Ex 340, Em 495/520).
TR-FRET data were normalized to the means of 24 no-compound controls (“high”) and 8 controls containing 1 μM un-labeled probe (“low”). Percent inhibition was plotted as a function of compound concentration and the data were fit with the 4 parameter logistic equation to obtain IC50s Inhibition constants (Ki) were calculated from the IC50s, probe Kd and probe concentration. Typical Z′ values were between 0.65 and 0.75. The minimum significant ratio was determined to evaluate assay reproducibility (Eastwood et al., (2006) J Biomol Screen, 11: 253-261). The MSR was determined to be 2.03 for BDI and 1.93 for BDII, and a moving MSR (last six run MSR overtime) for both BDI and BDII was typically <3.

BRD4 (BDII_E352-M457) = target: T2, BRD4 (BDII_E352-M457) (Homo sapiens, UniProt O60885); experiment: TR-FRET bromodomain binding assay, second bromodomain of BRD4; conditions: His-tagged BD2, 30 nM Alexa647 probe; TR-FRET protocol A-E given per row
T2 construct: proliferation; Protocol; made in house
Procedure: as §1, §2, §3
For Assay methods A, C, and D: Compounds were then diluted 6:100 in assay buffer (20 mM Sodium Phosphate, pH 6.0, 50 mM NaCl, 1 mM Ethylenediaminetetraacetic acid, 0.01% Triton X-100, 1 mM DL-Dithiothreitol) to yield 3× working solutions. […] Twelve μL of this solution were added to the assay plate to reach a final volume of 18 μL.
TR-FRET data were normalized to the means of 24 no-compound controls (“high”) and 8 controls containing 1 μM un-labeled probe (“low”). Percent inhibition was plotted as a function of compound concentration and the data were fit with the 4 parameter logistic equation to obtain IC50s Inhibition constants (Ki) were calculated from the IC50s, probe Kd and probe concentration. Typical Z′ values were between 0.65 and 0.75.

Ki (BRD4 (BDI_K57-E168)) [nM]	Ki (BRD4 (BDII_E352-M457)) [nM]	SMILES
6.2	13	Cn1cc(-c2cc(NS(C)(=O)=O)ccc2Oc2ccc(F)cc2F)c2cc[nH]c(=O)c21 [Example 2, N-[4-(2,4-difluorophenoxy)-3-(1-methyl-7-oxo-6,7-dihydro-1H-pyrrolo[2,3-c]pyridin-3-yl)phenyl]methanesulfonamide]
5.9	7.2	CCS(=O)(=O)Nc1ccc(Oc2ccc(F)cc2F)c(-c2cn(C)c3c(=O)[nH]ccc23)c1 [Example 4, N-[4-(2,4-difluorophenoxy)-3-(1-methyl-7-oxo-6,7-dihydro-1H-pyrrolo[2,3-c]pyridin-3-yl)phenyl]ethanesulfonamide]
684	1170	Cn1cc(-c2cc(NS(C)(=O)=O)c(Oc3ccc(F)cc3F)cc2F)c2cc[nH]c(=O)c21 [Example 12, N-[2-(2,4-difluorophenoxy)-4-fluoro-5-(1-methyl-7-oxo-6,7-dihydro-1H-pyrrolo[2,3-c]pyridin-3-yl)phenyl]methanesulfonamide]
3.3	12	CCS(=O)(=O)Nc1ccc(Oc2ccc(F)cc2)c(-c2cn(C)c3c(=O)[nH]ccc23)c1 [Example 15, N-[4-(4-fluorophenoxy)-3-(1-methyl-7-oxo-6,7-dihydro-1H-pyrrolo[2,3-c]pyridin-3-yl)phenyl]ethanesulfonamide]
12	21	Cn1cc(-c2cc(S(C)(=O)=O)ccc2Oc2ccccc2)c2cc[nH]c(=O)c21 [Example 18, 1-methyl-3-[5-(methylsulfonyl)-2-phenoxyphenyl]-1,6-dihydro-7H-pyrrolo[2,3-c]pyridin-7-one]
438	721	COc1ccc(S(C)(=O)=O)cc1-c1cn(C)c2c(=O)[nH]ccc12 [Example 21, 3-[2-methoxy-5-(methylsulfonyl)phenyl]-1-methyl-1,6-dihydro-7H-pyrrolo[2,3-c]pyridin-7-one]
42	111	Cn1cc(-c2cc(S(C)(=O)=O)ccc2OCCC2CCCC2)c2cc[nH]c(=O)c21 [Example 35, 3-[2-(2-cyclopentylethoxy)-5-(methylsulfonyl)phenyl]-1-methyl-1,6-dihydro-7H-pyrrolo[2,3-c]pyridin-7-one]
146	515	Cn1cc(-c2cc(S(C)(=O)=O)ccc2OCCC2CCCCC2)c2cc[nH]c(=O)c21 [Example 36, 3-[2-(2-cyclohexylethoxy)-5-(methylsulfonyl)phenyl]-1-methyl-1,6-dihydro-7H-pyrrolo[2,3-c]pyridin-7-one]
52	99	Cn1cc(-c2cc(S(C)(=O)=O)ccc2OCCc2ccccc2)c2cc[nH]c(=O)c21 [Example 37, 1-methyl-3-[5-(methylsulfonyl)-2-(2-phenylethoxy)phenyl]-1,6-dihydro-7H-pyrrolo[2,3-c]pyridin-7-one]
90	435	Cn1cc(-c2cc(S(C)(=O)=O)ccc2OC2Cc3ccccc3C2)c2cc[nH]c(=O)c21 [Example 38, 3-[2-(2,3-dihydro-1H-inden-2-yloxy)-5-(methylsulfonyl)phenyl]-1-methyl-1,6-dihydro-7H-pyrrolo[2,3-c]pyridin-7-one]
63	51	Cn1cc(-c2cc(S(C)(=O)=O)ccc2OCCc2cccs2)c2cc[nH]c(=O)c21 [Example 39, 1-methyl-3-{5-(methylsulfonyl)-2-[2-(thiophen-2-yl)ethoxy]phenyl}-1,6-dihydro-7H-pyrrolo[2,3-c]pyridin-7-one]
2580	2540	Cn1ccc2c(-c3cc(S(C)(=O)=O)ccc3OCC3CC3(F)F)cn(C)c2c1=O (stereo not shown) [Example 43, 3-{2-[(2,2-difluorocyclopropyl)methoxy]-5-(methylsulfonyl)phenyl}-1,6-dimethyl-1,6-dihydro-7H-pyrrolo[2,3-c]pyridin-7-one]
33	124	Cn1cc(-c2cc(S(C)(=O)=O)ccc2NCC2CCCCC2)c2cc[nH]c(=O)c21 [Example 47, 3-{2-[(cyclohexylmethyl)amino]-5-(methylsulfonyl)phenyl}-1-methyl-1,6-dihydro-7H-pyrrolo[2,3-c]pyridin-7-one]
1710	> 4440	Cc1cccc(OCC2CC2)c1-c1cn(C)c2c(=O)[nH]ccc12 [Example 50, 3-[2-(cyclopropylmethoxy)-6-methylphenyl]-1-methyl-1,6-dihydro-7H-pyrrolo[2,3-c]pyridin-7-one]
606	600	CCS(=O)(=O)c1cnc(Oc2ccc(F)cc2F)c(-c2cn(C)c3c(=O)[nH]ccc23)c1 [Example 59, 3-[2-(2,4-difluorophenoxy)-5-(ethylsulfonyl)pyridin-3-yl]-1-methyl-1,6-dihydro-7H-pyrrolo[2,3-c]pyridin-7-one]
357	291	Cn1cc(-c2cc(S(C)(=O)=O)ccc2Oc2ccc(C(C)(C)C)cc2)c2cc[nH]c(=O)c21 [Example 62, 3-[2-(4-tert-butylphenoxy)-5-(methylsulfonyl)phenyl]-1-methyl-1,6-dihydro-7H-pyrrolo[2,3-c]pyridin-7-one]
416	2640	Cn1cc(-c2cc(S(C)(=O)=O)ccc2OCCC23CC4CC(CC(C4)C2)C3)c2cc[nH]c(=O)c21 [Example 65]
219	741	Cn1cc(-c2cc(S(C)(=O)=O)ccc2OCCCC2CCCC2)c2cc[nH]c(=O)c21 [Example 66, 3-[2-(3-cyclopentylpropoxy)-5-(methylsulfonyl)phenyl]-1-methyl-1,6-dihydro-7H-pyrrolo[2,3-c]pyridin-7-one]
773	2290	Cn1cc(-c2cc(S(C)(=O)=O)ccc2NCC(F)(F)F)c2cc[nH]c(=O)c21 [Example 69, 1-methyl-3-{5-(methylsulfonyl)-2-[(2,2,2-trifluoroethyl)amino]phenyl}-1,6-dihydro-7H-pyrrolo[2,3-c]pyridin-7-one]
613	1660	Cn1cc(-c2cc(S(C)(=O)=O)ccc2NCC(F)(F)C(F)(F)C(F)(F)F)c2cc[nH]c(=O)c21 [Example 70, 3-{2-[(2,2,3,3,4,4,4-heptafluorobutyl)amino]-5-(methylsulfonyl)phenyl}-1-methyl-1,6-dihydro-7H-pyrrolo[2,3-c]pyridin-7-one]
492	967	Cn1cc(-c2cc(S(C)(=O)=O)ccc2NCCC2CCCC2)c2cc[nH]c(=O)c21 [Example 72, 3-{2-[(2-cyclopentylethyl)amino]-5-(methylsulfonyl)phenyl}-1-methyl-1,6-dihydro-7H-pyrrolo[2,3-c]pyridin-7-one]
> 2380	388	CCS(=O)(=O)c1ccc(Oc2ccncc2)c(-c2cn(C)c3c(=O)[nH]ccc23)c1 [Example 74, 3-[5-(ethylsulfonyl)-2-(pyridin-4-yloxy)phenyl]-1-methyl-1,6-dihydro-7H-pyrrolo[2,3-c]pyridin-7-one]
131	42	CCS(=O)(=O)c1ccc(Oc2cnc(C)cc2C)c(-c2cn(C)c3c(=O)[nH]ccc23)c1 [Example 75, 3-{2[(4,6-dimethylpyridin-3-yl)oxy]-5-(ethylsulfonyl)phenyl}-1-methyl-1,6-dihydro-7H-pyrrolo[2,3-c]pyridin-7-one]
